Experimental data taken from patent publication US7897568B2, “Compositions for treatment of cancer” (priority 2006, dated 2011).
Where a SMILES comes first, the peptide text is derived from it. Where no end group is shown, it is not given here.

Legend:
GST-SNCG = target: T1, GST-SNCG (Homo sapiens, UniProt O76070); assay: Isothermal titration calorimetry of ANK peptide into GST-SNCG; details: ITC, first binding site
T1 construct: The SNCG coding region was amplified from the human cDNA clone; made in house; host or cells: Escherichia coli BL21 (DE3)
T1 sequence (O76070 whole entry): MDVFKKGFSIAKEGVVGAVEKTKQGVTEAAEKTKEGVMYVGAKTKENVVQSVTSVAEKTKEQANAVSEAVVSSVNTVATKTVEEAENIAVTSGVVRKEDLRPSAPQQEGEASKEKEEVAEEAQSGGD
Description: The heat of dilution was measured by titrating ANK peptide in buffer alone. This was generally small and subtracted from each binding titration curve.
Titration calorimetry measurements were performed with a VP-ITC calorimeter (Microcal, Northampton, Mass.). The protein solution for ITC was dialyzed extensively overnight against 10 mM phosphate buffer, pH 7.0. The peptide solution was prepared by diluting with the buffer used for the protein dialysis. Injections (6 μl×50) of peptide (400 μM) were done by means of a rotating stirrer-syringe to the reaction cell, containing 1.43 ml of the 50 μM protein solution. The heat of dilution was determined to be negligible in separate titrations of the ligand into the buffer solution. Calorimetric data analysis was carried out with ORIGIN 5.0 software (MicroCal). Binding parameters such as the number of binding sites, the binding constant, and the binding enthalpy of bound ligand were determined by fitting the experimental binding isotherms.

SNCG = SNCG (Homo sapiens, UniProt O76070); assay: ANS fluorescence of the SNCG-ANK peptide complex; assay type: binding; design: The SNCG coding region was amplified from the human cDNA clone; GST (N, cleaved yes); made in house; host or cells: Escherichia coli BL21 (DE3); details: SNCG 30 μM, ANK peptide 240 μM, 0.02 mg/mL ANS; versus peptide only
Chain of SNCG (O76070 whole entry): as above
Excerpt: ANS fluorescence was also utilized to study the conformational properties of SNCG and the SNCG-ANK peptide interaction (See FIG. 2C). Changes in ANS fluorescence intensity are frequently used to monitor formation of partially folded intermediates during protein unfolding and refolding (Semisotnov et al. Biopolymers 1991 31:119-128), as well as to analyze the hydrophobic surfaces of proteins (Stryer, L. J. Mol. Biol. 1965 13:482-495). The interaction of ANS with solvent-exposed hydrophobic clusters is accompanied by a considerable increase in the dye fluorescence intensity and a pronounced blue shift of the fluorescence maximum. […] The addition of ANK peptide induced significant changes in ANS fluorescence properties, including a dramatic increase in the fluorescence intensity and a blue shift in λmax. […] Importantly, formation of the SNCG-ANK complex is accompanied by an approximate 20% decrease in ANS fluorescence intensity of only peptide which is affected by the presence of SNCG, confirming the interaction between SNCG and ANK peptide.

MCF7-SNCG cells = assay: Mitotic index and apoptosis by DAPI staining after paclitaxel; assay type: cell-based; details: SNCG cells expressing EGFP-ANK versus pEGFP, paclitaxel 18 hours
Description: FIG. 7A through D show expression of EGFP-ANK disrupting the SNCG-mediated inhibition of mitotic checkpoint function as measured by microscopy and flow cytometry. The bar graphs show the expression of EGFP-ANK disrupting the SNCG-mediated inhibition of mitotic checkpoint function, using (FIG. 7A) DAPI and (FIG. 7B) anti-phospho-H^3 staining. For graphs of FIGS. 7A and 7B, the cells treated with 0.5 μM paclitaxel for 18 hours or untreated control cells were fixed with 4% paraformaldehyde for 20 minutes at room temperature. In both cases, the cells were then stained with 1 μg/ml of DAPI or 2 μg/ml anti-phospho-H3 primary and Texas Red goat anti-rabbit secondary antibodies (Invitrogen). Green fluorescent cells were identified for positive transfected cells. For each sample, 200-300 cells randomly chosen from 5 different views under a Nikon fluorescent microscope were scored for interphase, mitotic, or apoptotic based upon nuclei morphology. The data shown were derived from three separate transfections (p<0.01). […]
Two days after transfection, cells were exposed to paclitaxel for 18 hours and numbers of mitotic arrested and apoptotic cells were counted after DAPI staining. […] These cells were also probed with rabbit polyclonal anti-phospho-H^3 and the mitotic index was calculated according to the proportion of the number of H^3 stained EGFP positive cells to total EGFP positive cells (FIG. 7B). […]

Row | Compound | ΔH (GST-SNCG) | decrease in ANS fluorescence intensity on formation of the SNCG-ANK complex (SNCG) | increase in the number of mitotic arrested cells (MCF7-SNCG cells)
1 | CC[C@H](C)[C@H](NC(=O)[C@H](CS)NC(=O)CNC(=O)[C@H](CC(C)C)NC(=O)[C@H](Cc1c[nH]cn1)NC(=O)CNC(=O)[C@H](Cc1c[nH]cn1)NC(=O)[C@H](CCC(N)=O)NC(=O)[C@H](CO)NC(=O)[C@H](C)NC(=O)[C@@H](NC(=O)[C@H](Cc1c[nH]cn1)NC(=O)[C@H](CC(C)C)NC(=O)[C@H](C)NC(=O)[C@H](CO)NC(=O)[C@H](CC(N)=O)NC(=O)CNC(=O)[C@H](CCCCN)NC(C)=O)C(C)C)C(=O)N[C@@H](CCC(N)=O)C(=O)N[C@H](C(=O)N[C@@H](CC(C)C)C(=O)N[C@H](C(=O)N[C@@H](CCCNC(=N)N)C(=O)N[C@@H](Cc1ccc(O)cc1)C(=O)NCC(=O)N[C@@H](C)C(=O)N[C@@H](CC(N)=O)C(=O)N[C@H](C(=O)N[C@H](C(=O)N[C@@H](CCSC)C(=O)N[C@@H](CCC(N)=O)C(=O)N[C@@H](CC(N)=O)C(=O)N[C@@H](Cc1c[nH]cn1)C(=O)NCC(N)=O)[C@@H](C)O)C(C)C)C(C)C)[C@@H](C)O [ANK peptide] (Ac-KGNSALHVASQHGHLGCIQTLVRYGANVTMQNHG-NH2) | 2.174 ± 0.2 kcal/mol | ~20% | 
2 | EGFP-ANK: ANK peptide expressed as a fusion protein with its amino-terminal linked to EGFP protein, approximately 37 kDa ({EGFP}-KGNSALHVASQHGHLGCIQTLVRYGANVTMQNHG) |  |  | ~2 fold
